Experimental data published in patent US20250154171A1, “RAS INHIBITORS” (Revolution Medicines, Inc., priority 2023, published 2025).
Where two headings read alike, the source gives them in different places.

Key:
[1] = ester bond, 18-membered ring, PyBOP/HOBt/DIEA
[2] = test system: K-RasG12V (Capan-1); assay: Potency assay: cellular pERK (AlphaLISA SureFire or In-Cell Western), Capan-1; assay type: cell-based; conditions: Homo sapiens; Capan-1 cells; 4 hours; in at least one of the assays (AlphaLISA or In-Cell Western); read-out: pERK IC50 with respect to K-RasG12V (Capan-1)
Description: The purpose of this assay is to measure the ability of test compounds to inhibit K-Ras in cells. Activated K-Ras induces increased phosphorylation of ERK at Threonine 202 and Tyrosine 204 (PERK). This procedure measures a decrease in cellular pERK in response to test compounds. The procedure described below in Capan-1 cells is applicable to K-RasG12V.
Note: This protocol may be executed substituting other cell lines to characterize inhibitors of other RAS variants, including, for example, NCI-H358 (K-Ras G12C), AsPC-1 (K-Ras G12D), Capan-1 (K-Ras G12V), or NCI-H1355 (K-Ras G13C).
Cells are grown and maintained using media and procedures recommended by the ATCC. On the day prior to compound addition, cells are plated in 384-well cell culture plates (40 μl/well) and grown overnight in a 37° C., 5% CO2 incubator. Test compounds are prepared in 10, 3-fold dilutions in DMSO, with a high concentration of 10 mM. On the day of assay, 40 nL of test compound is added to each well of cell culture plate using an Echo550 liquid handler (LabCyte®). Concentrations of test compound are tested in duplicate. After compound addition, cells are incubated 4 hours at 37° C., 5% CO2. Following incubation, culture medium is removed, and cells are washed once with phosphate buffered saline.
In some experiments, cellular pERK level is determined using the AlphaLISA SureFire Ultra p-ERK1/2 Assay Kit (PerkinElmer). Cells are lysed in 25 μL lysis buffer, with shaking at 600 RPM at room temperature. Lysate (10 μL) is transferred to a 384-well Opti-plate (PerkinElmer) and 5 μL acceptor mix is added. After a 2-hour incubation in the dark, 5 μL donor mix is added, plate is sealed, and incubated 2 hours at room temperature. Signal is read on an Envision plate reader (PerkinElmer) using standard AlphaLISA settings. Analysis of raw data is carried out in Excel (Microsoft) and Prism (GraphPad). Signal is plotted vs. the decadal logarithm of compound concentration, and IC50 is determined by fitting a 4-parameter sigmoidal concentration response model.
In other experiments, cellular pERK is determined by In-Cell Western. Following compound treatment, cells are washed twice with 200 μL tris buffered saline (TBS) and fixed for 15 minutes with 150 μL 4% paraformaldehyde in TBS. Fixed cells are washed 4 times for 5 minutes with TBS containing 0.1% Triton X-100 (TBST) and then blocked with 100 μL Odyssey blocking buffer (LI-COR) for 60 minutes at room temperature. Primary antibody (PERK, CST-4370, Cell Signaling Technology) is diluted 1:200 in blocking buffer, and 50 μL is added to each well and incubated overnight at 4° C. Cells are washed 4 times for 5 minutes with TBST. Secondary antibody (IR-800CW rabbit, LI-COR, diluted 1:800) and DNA stain DRAQ5 (LI-COR, diluted 1:2000) are added and incubated 1-2 hours at room temperature. Cells are washed 4 times for 5 minutes with TBST. Plates are scanned on a Li—COR Odyssey CLx Imager. Analysis of raw data is carried out in Excel (Microsoft) and Prism (GraphPad). Signal is plotted vs. the decadal logarithm of compound concentration, and IC50 is determined by fitting a 4-parameter sigmoidal concentration response model.

COC1CN([C@@H]2c3nc(cs3)-c3ccc4c(c3)c(c(-c3cccnc3[C@H](C)OC)n4C3CN(C4CC4)C3)CC(C)(C)COC(=O)[C@@H]3CCCN(N3)C(=O)[C@H]2NC(=O)OC(C)(C)C)C1
ring closure, yield after HPLC ([1]; from COC1CN([C@H](c2nc(-c3ccc4c(c3)c(CC(C)(C)CO)c(-c3cccnc3[C@H](C)OC)n4C3CN(C4CC4)C3)cs2)[C@H](NC(=O)OC(C)(C)C)C(=O)N2CCC[C@@H](C(=O)O)N2)C1, DMF, 11.2 mM, 25.0 °C, 5.0 h): 40.2%

CO[C@@H](C)c1ncccc1-c1c2c3cc(ccc3n1C1CC(C#N)C1)-c1coc(n1)[C@@H](N1CC3(COC3)C1)[C@H](NC(=O)OC(C)(C)C)C(=O)N1CCC[C@H](N1)C(=O)OCC(C)(C)C2 (stereo partly shown)
ring closure, yield after HPLC ([1]; from CO[C@@H](C)c1ncccc1-c1c(CC(C)(C)CO)c2cc(-c3coc([C@H]([C@H](NC(=O)OC(C)(C)C)C(=O)N4CCC[C@@H](C(=O)O)N4)N4CC5(COC5)C4)n3)ccc2n1C1CC(C#N)C1, DMF, 12.5 mM, 25.0 °C, 2.0 h): 27.4%

CO[C@@H](C)c1ncc(C2CN(C3CC3)C2)cc1-c1c2c3cc(ccc3n1CCOC1CCOCC1)-c1csc(n1)[C@@H](N1CC3(COC3)C1)[C@H](NC(=O)[C@@H]1OC[C@@H]1C)C(=O)N1CCC[C@H](N1)C(=O)OCC(C)(C)C2
ring closure, yield after HPLC ([1]; from CO[C@@H](C)c1ncc(C2CN(C3CC3)C2)cc1-c1c(CC(C)(C)CO)c2cc(-c3csc([C@H]([C@H](NC(=O)[C@@H]4OC[C@@H]4C)C(=O)N4CCC[C@@H](C(=O)O)N4)N4CC5(COC5)C4)n3)ccc2n1CCOC1CCOCC1, MeCN, 1.44 mM, 35.0 °C, 3.0 h): 20%

CO[C@@H](C)c1ncccc1-c1c2c3cc(ccc3n1C1CN(C3CC3)C1)-c1csc(n1)[C@@H](N1CC3(CCN3C)C1)[C@H](NC(=O)[C@H]1[C@H](C)[C@@H]1C)C(=O)N1CCC[C@H](N1)C(=O)OCC(C)(C)C2 (atropisomer, axis not shown) [Example A1191]
IC50 [2]: < 650 nM
